Patent US20250049798A1, “WEE1 PROTEIN KINASE DEGRADATION AGENT AND USE THEREOF” (HANGZHOU GLUBIO PHARMACEUTICAL CO. LTD., priority 2021, published 2025)

Columns and labels:
HiBiT tagged Wee1 = HiBiT tagged Wee1 (Homo sapiens, UniProt P30291); test: Wee1 protein degradation assay (HiBiT assay); type: cell-based; settings: engineered HT-1080 cells, 20 hours; for Dmax: maximum percentage of Wee1 degradation, read-out: HiBiT Wee1: Dmax
NCI-H1048 cells = test: NCI-H1048 cell proliferation assay (CTG assay); type: cell-based; settings: Homo sapiens, 120 hours, read-out: CTG cellular assay_H1048: IC50
Protocol: NCI-H1048 Cell Proliferation Assay (CTG Assay) The following is an example of an assay that can be used to determine the anti-proliferative activity of Wee1 PROTACs in a small cell lung cancer cell line, NCI-H1048 (ATCC Cat #CRL-5853). This cell line was cultured in RPMI-1640 medium supplemented with 10% FBS. About 1,200 NCI-H1048 cells in 50 μL of culture medium were seeded into a 384-well plate (Cat #3764, Corning), pre-spotted with compounds using the Echo 650 liquid handler (Beckman). The dose-response-curve (DRC) typically has 10-points with a highest concentration at 10 μM, and half-log diluted to as low as 0.316 nM, plus a DMSO control. Assay plates were incubated at 37° C. with 5% CO2 for 120 hours. After that, 20 μL of the CellTiter-Glo (CTG) Luminescent Cell Viability Assay Reagent (Cat #G7573, Promega) was added to each well and incubated at room temperature for 30 minutes. Luminescence was then measured with Pherastar microplate reader (BMG Labtech). All percentage of cell growth inhibition curves were processed using Collaborative Drug Discovery Vault.
Cell viability reads in compound-treated wells were normalized to that of DMSO control and expressed as Percent of Control (PoC, y). A four Parameter Logistic Model was used to determine the compound's EC50 and DC50, using the following equation: […]

Sequence of HiBiT tagged Wee1 (P30291 whole entry): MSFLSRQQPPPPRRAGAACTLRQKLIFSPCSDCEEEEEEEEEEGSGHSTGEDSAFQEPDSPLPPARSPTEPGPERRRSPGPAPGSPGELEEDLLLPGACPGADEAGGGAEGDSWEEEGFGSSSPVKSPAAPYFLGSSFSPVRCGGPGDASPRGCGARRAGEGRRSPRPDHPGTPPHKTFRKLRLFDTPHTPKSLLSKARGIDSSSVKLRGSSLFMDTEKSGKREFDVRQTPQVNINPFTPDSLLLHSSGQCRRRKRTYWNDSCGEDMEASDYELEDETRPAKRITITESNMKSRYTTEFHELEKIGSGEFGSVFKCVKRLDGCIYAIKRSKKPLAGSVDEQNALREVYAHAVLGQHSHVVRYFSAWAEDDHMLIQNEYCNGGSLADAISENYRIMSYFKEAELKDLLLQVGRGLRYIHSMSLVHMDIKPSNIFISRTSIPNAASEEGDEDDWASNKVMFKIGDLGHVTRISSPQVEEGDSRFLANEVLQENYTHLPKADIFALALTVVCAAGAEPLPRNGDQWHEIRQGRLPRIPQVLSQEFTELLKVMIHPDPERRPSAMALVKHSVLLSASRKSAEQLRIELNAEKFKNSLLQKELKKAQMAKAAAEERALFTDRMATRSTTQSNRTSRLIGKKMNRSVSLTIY

Structure (SMILES) | DC50 (HiBiT tagged Wee1) | Dmax (HiBiT tagged Wee1) | IC50 (NCI-H1048 cells)
C=CCn1c(=O)c2cnc(Nc3ccc(N4CCN(CC5CCN(c6ccc(NC7CCC(=O)NC7=O)cc6F)CC5)CC4)cc3)nc2n1-c1ccc(=O)n(C(C)C)n1 (stereo not shown) [Compound 158] | < 100 nM | > 75% | ≤ 25 nM
C=CCn1c(=O)c2cnc(Nc3ccc(N4CCN(CC5CCN(c6ccc(NC7CCC(=O)NC7=O)cc6F)CC5)CC4)cc3)nc2n1-c1ccc2c(n1)[C@@](O)(CC)CC2 (single isomer, unassigned) [Compound 150-A] | < 100 nM | > 75% | ≤ 25 nM
C=CCn1c(=O)c2cnc(Nc3ccc(N4CCC(CN5CCC(c6ccc7c(c6)n(C)c(=O)n7C6CCC(=O)NC6=O)CC5)CC4)cc3)nc2n1-c1cccc(C(C)(C)O)n1 (stereo not shown) [Compound 52] | < 100 nM | 50 to 75% | ≤ 25 nM
C=CCn1c(=O)c2cnc(Nc3ccc(N4CCN(CC5CCN(c6ccc7c(c6)C(=O)N(C6CCC(=O)NC6=O)C7=O)CC5)CC4)cc3)nc2n1-c1cccc(C(C)(C)O)n1 (stereo not shown) [Compound 8] | < 100 nM | 50 to 75% | 25 to 100 nM
C=CCn1c(=O)c2cnc(Nc3ccc(C4CCN(CC5CCN(c6ccc7c(N8CCC(=O)NC8=O)nn(C)c7c6)CC5)CC4)cc3)nc2n1-c1cccc(C(C)(C)O)n1 [Compound 104] | < 100 nM | > 75% | ≤ 25 nM
C=CCn1c(=O)c2cnc(Nc3ccc(N4CCN(CCCc5ccc6c(c5)n(C)c(=O)n6C5CCC(=O)NC5=O)CC4)cc3)nc2n1-c1cccc(C(C)(C)O)n1 (stereo not shown) [Compound 46] | < 100 nM | 50 to 75% | 25 to 100 nM
C=CCn1c(=O)c2cnc(Nc3ccc(N4CCN(CC5CCN(c6ccc7c(N8CCC(=O)NC8=O)nn(C)c7c6F)CC5)CC4)cc3)nc2n1-c1ccc2c(n1)[C@](C)(O)CC2 [Compound 200] | < 100 nM | > 75% | ≤ 25 nM
C=CCn1c(=O)c2cnc(Nc3ccc(N4CCC(N5CC6(CN(c7ccc(NC8CCC(=O)NC8=O)cc7F)C6)C5)CC4)cc3)nc2n1-c1ccc2c(n1)[C@@](O)(CC)CC2 (stereo partly shown) [Compound 156] | < 100 nM | – | ≤ 25 nM
C=CCn1c(=O)c2cnc(Nc3ccc(N4CCN(C5CC6(C5)CN(c5ncc(NC7CCC(=O)NC7=O)cc5F)C6)CC4)cc3)nc2n1-c1ccc2c(n1)[C@@](O)(CC)CC2 (stereo partly shown) [Compound 185] | < 100 nM | > 75% | ≤ 25 nM
C=CCn1c(=O)c2cnc(Nc3ccc(N4CCN(CC5CCN(c6cc7c(cc6F)c(N6CCC(=O)NC6=O)nn7C)CC5)CC4)cc3)nc2n1-c1ccc2c(n1)[C@@](O)(CC)CC2 [Compound 161] | < 100 nM | > 75% | ≤ 25 nM
O=C1CCC(N2C(=O)c3ccc(N4CCC(CN5CCN(c6ccc(Nc7ncc8c(=O)n(-c9c(Cl)cccc9Cl)c9nccn9c8n7)cc6)CC5)CC4)cc3C2=O)C(=O)N1 (stereo not shown) [Compound 3] | < 100 nM | 50 to 75% | 25 to 100 nM
C=CCn1c(=O)c2cnc(Nc3ccc(N4C[C@@H](C)N(CC5CCN(c6ccc(NC7CCC(=O)NC7=O)cc6F)CC5)[C@@H](C)C4)cc3)nc2n1-c1ccc2c(n1)[C@@](O)(CC)CC2 (stereo partly shown) [Compound 169] | < 100 nM | > 75% | ≤ 25 nM
C=CCn1c(=O)c2cnc(Nc3ccc(N4CCN(CC5CCN(c6ccc7c(N8CCC(=O)NC8=O)nn(C)c7c6)CC5)[C@H](C)C4)cc3)nc2n1-c1ccc2c(n1)[C@@](O)(CC)CC2 [Compound 174] | < 100 nM | 50 to 75% | ≤ 25 nM
C=CCn1c(=O)c2cnc(Nc3ccc(N4CCN(CC5CCN(c6cc7c(cc6F)c(N6CCC(=O)NC6=O)nn7C)CC5)CC4)cc3)nc2n1-c1ccc2c(n1)[C@](C)(O)CC2 [Compound 196] | < 100 nM | > 75% | ≤ 25 nM
C=CCn1c(=O)c2cnc(Nc3ccc(C4CCN(CC5CCN(c6ccc(NC7CCC(=O)NC7=O)cc6)CC5)CC4)cc3)nc2n1-c1cccc(C(C)(C)O)n1 (stereo not shown) [Compound 85] | < 100 nM | 50 to 75% | ≤ 25 nM
C=CCn1c(=O)c2cnc(Nc3ccc(C4CCN(CC5CCN(c6cccc7c6n(C)c(=O)n7C6CCC(=O)NC6=O)CC5)CC4)cc3)nc2n1-c1ccc2c(n1)[C@@](O)(CC)CC2 (stereo partly shown) [Compound 108] | < 100 nM | 50 to 75% | ≤ 25 nM
C=CCn1c(=O)c2cnc(Nc3ccc(N4CCN(CCCCc5cccc6c5n(C)c(=O)n6C5CCC(=O)NC5=O)CC4)cc3)nc2n1-c1cccc(C(C)(C)O)n1 (stereo not shown) [Compound 51] | < 100 nM | 50 to 75% | ≤ 25 nM
C=CCn1c(=O)c2cnc(Nc3ccc(N4CCC(CN5CCN(c6ccc(NC7CCC(=O)NC7=O)cc6F)CC5)CC4)cc3)nc2n1-c1ccc2c(n1)[C@](C)(O)CC2 (single isomer, unassigned) [Compound 120] | < 100 nM | 50 to 75% | –

Structure (SMILES) | DC50 (HiBiT tagged Wee1) | Dmax (HiBiT tagged Wee1) | IC50 (NCI-H1048 cells)
C=CCn1c(=O)c2cnc(Nc3ccc(N4CCC(CN5CCN(c6ccc(OC7CCC(=O)NC7=O)cc6F)CC5)CC4)cc3)nc2n1-c1cccc(C(C)(C)O)n1 (stereo not shown) [Compound 149] | < 100 nM | > 75% | –
COc1ccc(C(=O)N2CCC(CCN3CCC(c4ccc(Nc5ncc6c(=O)n(-c7c(Cl)cccc7Cl)c7nccn7c6n5)cc4)CC3)CC2)cc1N1CCC(=O)NC1=O [Compound 28] | > 1000 nM | 50 to 75% | –
C=CCn1c(=O)c2cnc(Nc3ccc(C4CCN(C5CCN(c6ccc7c(c6)C(=O)N(C6CCC(=O)NC6=O)C7=O)C5)CC4)cc3)nc2n1-c1cccc(C(C)(C)O)n1 (stereo not shown) [Compound 39] | 100 to 1000 nM | 50 to 75% | –
C=CCn1c(=O)c2cnc(Nc3ccc(N4CCN(CC5CCN(c6ccc(NC7CCC(=O)NC7=O)nc6)CC5)CC4)cc3)nc2n1-c1ccc2c(n1)[C@@](O)(CC)CC2 (stereo partly shown) [Compound 203] | < 100 nM | 50 to 75% | –
C=CCn1c(=O)c2cnc(Nc3ccc(N4CCN(CC5CN(c6ccc7c(c6)C(=O)N(C6CCC(=O)NC6=O)C7=O)C5)CC4)c(C)c3)nc2n1-c1cccc(C(C)(C)O)n1 (stereo not shown) [Compound 12] | < 100 nM | 50 to 75% | –
C=CCn1c(=O)c2cnc(Nc3ccc(C4CCN(CC5CCN(c6ccc(C(=O)NC7CCC(=O)NC7=O)nc6)CC5)CC4)cc3)nc2n1-c1cccc(C(C)(C)O)n1 (stereo not shown) [Compound 35] | > 1000 nM | < 50% | –
Cc1cc(Nc2ncc3c(n2)N(C)CN(c2c(Cl)cccc2Cl)C3=O)ccc1N1CCC(CN2CCN(c3cccc4c3C(=O)N(C3CCC(=O)NC3=O)C4=O)CC2)CC1 (stereo not shown) [Compound 31] | > 1000 nM | < 50% | –
C=CCn1c(=O)c2cnc(Nc3ccc(N4CCC(N5CCN(c6cc7c(cc6F)C(=O)N(C6CCC(=O)NC6=O)C7=O)CC5)CC4)cc3)nc2n1-c1cccc(C(C)(C)O)n1 (stereo not shown) [Compound 78] | 100 to 1000 nM | 50 to 75% | –
C=CCn1c(=O)c2cnc(Nc3ccc(C4CCN(C5CCN(c6cccc7c6n(C)c(=O)n7C6CCC(=O)NC6=O)CC5)CC4)cc3)nc2n1-c1cccc(C(C)(C)O)n1 (stereo not shown) [Compound 99] | < 100 nM | 50 to 75% | –
C=CCn1c(=O)c2cnc(Nc3ccc(C4CCN(C5CN(c6ccc7c(c6)C(=O)N(C6CCC(=O)NC6=O)C7=O)C5)CC4)cc3)nc2n1-c1cccc(C(C)(C)O)n1 (stereo not shown) [Compound 43] | < 100 nM | > 75% | –
C=CCn1c(=O)c2cnc(Nc3ccc(N4CCC(CN5CCN(c6ccc(NC7CCC(=O)NC7=O)cc6F)CC5)CC4)c(C)c3)nc2n1-c1ccc2c(n1)[C@@](O)(CC)CC2 (stereo partly shown) [Compound 134] | < 100 nM | > 75% | –
C=CCn1c(=O)c2cnc(Nc3ccc(N4CCN(C5CCN(c6ccc(NC7CCC(=O)NC7=O)cc6F)CC5)[C@H](C)C4)cc3)nc2n1-c1ccc2c(n1)[C@@](O)(CC)CC2 (stereo partly shown) [Compound 186] | < 100 nM | > 75% | –
C=CCn1c(=O)c2cnc(Nc3ccc(C4CCN(C[C@H]5CCN(c6ccc7c(c6)C(=O)N(C6CCC(=O)NC6=O)C7=O)C5)CC4)cc3)nc2n1-c1cccc(C(C)(C)O)n1 (stereo partly shown) [Compound 36] | < 100 nM | 50 to 75% | –
C=CCn1c(=O)c2cnc(Nc3ccc(N4CCC(CN5CCN(c6ccc(NC7CCC(=O)NC7=O)cc6Cl)CC5)CC4)cc3)nc2n1-c1cccc(C(C)(C)O)n1 (stereo not shown) [Compound 147] | < 100 nM | > 75% | –
C=CCn1c(=O)c2cnc(Nc3ccc(N4CCN(CCCOc5ccc6c(c5)C(=O)N(C5CCC(=O)NC5=O)C6=O)CC4)cc3)nc2n1-c1cccc(C(C)(C)O)n1 (stereo not shown) [Compound 62] | < 100 nM | > 75% | –
C=CCn1c(=O)c2cnc(Nc3ccc(N4CCN(CC5CCN(c6ccc7c(c6)CN(C6CCC(=O)NC6=O)C7=O)CC5)CC4)cc3)nc2n1-c1cccc(C(C)(C)O)n1 (stereo not shown) [Compound 25] | < 100 nM | 50 to 75% | –
O=C1CCC(N2C(=O)c3ccc(N4CCC(CCN5CCC(c6ccc(Nc7ncc8c(=O)n(-c9c(Cl)cccc9Cl)c9nccn9c8n7)cc6)CC5)CC4)cc3C2=O)C(=O)N1 (stereo not shown) [Compound 15] | 100 to 1000 nM | 50 to 75% | –
C=CCn1c(=O)c2cnc(Nc3ccc(N4CCN(CC5CCN(c6ccc7c(N8CCC(=O)NC8=O)nn(C)c7c6)CC5)CC4)c(C)c3)nc2n1-c1ccc2c(n1)[C@@](C)(O)CC2 [Compound 138] | < 100 nM | 50 to 75% | –
